Calls of active or inactive are those of the source. No rule for the calls is given here. A value given as a limit tells only on which side of the number the result lay.

Chain of Alkaline phosphatase, germ cell type (Homo sapiens) (P10696 whole entry, looked up): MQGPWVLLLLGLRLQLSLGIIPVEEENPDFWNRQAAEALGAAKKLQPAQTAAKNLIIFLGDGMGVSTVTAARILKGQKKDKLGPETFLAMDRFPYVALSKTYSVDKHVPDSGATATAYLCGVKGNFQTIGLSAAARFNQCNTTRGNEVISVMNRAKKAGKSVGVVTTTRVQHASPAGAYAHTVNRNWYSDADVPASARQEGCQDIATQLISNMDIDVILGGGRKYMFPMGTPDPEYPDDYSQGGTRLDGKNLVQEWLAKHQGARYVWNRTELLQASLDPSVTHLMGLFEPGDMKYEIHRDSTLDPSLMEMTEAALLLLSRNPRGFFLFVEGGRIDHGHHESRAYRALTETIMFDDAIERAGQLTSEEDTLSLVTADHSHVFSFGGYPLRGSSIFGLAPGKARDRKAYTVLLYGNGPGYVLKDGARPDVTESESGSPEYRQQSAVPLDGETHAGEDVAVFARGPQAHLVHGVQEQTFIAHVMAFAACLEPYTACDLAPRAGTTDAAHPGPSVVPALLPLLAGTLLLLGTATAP

The assay addresses Alkaline phosphatase, germ cell type (Homo sapiens) (UniProt P10696). Kind of assay: effect of analogs on PLAP-like activity, SAR follow-up, selectivity assay for mouse IAP activator project, biochemical, human placental-like ALPPL2 isozyme (AID 493139). The settings on record: purified human placental-like alkaline phosphatase, enzymatic activity.
As to `O=C(NN=Cc1cccnc1)c1cc(O)c(O)c(O)c1`, the IC50 (inhibition of PLAP activity) was > 100 µM (inactive).

With `O=C(CCN1C(=O)/C(=C\c2ccco2)SC1=S)Nc1ccc(C(=O)O)c(O)c1`, the IC50 (inhibition of PLAP activity) is > 100 µM (inactive).

Consider `N#Cc1c(SCC(=O)Nc2nccs2)sc2c(O)cc(=O)[nH]c12`, for which the IC50 (inhibition of PLAP activity) was > 100 µM (inactive).

As for `O=C(CN1C(=O)/C(=C/c2ccco2)SC1=S)Nc1ccc(O)c(C(=O)O)c1`, the IC50 (inhibition of PLAP activity) is 27 µM.

In the case of `COc1ccccc1NC(=O)CCNS(=O)(=O)c1ccc2[nH]c(=O)oc2c1`, the IC50 (inhibition of PLAP activity) is > 100 µM (inactive).

On to `O=C(CN1C(=O)/C(=C/c2ccco2)SC1=S)N[C@@H]1CSC[C@@H]1O`, for which the IC50 (inhibition of PLAP activity) is > 100 µM (inactive).

For `Cc1ccc(NC(=O)CCNS(=O)(=O)c2ccc3[nH]c(=O)oc3c2)cc1F`, the IC50 (inhibition of PLAP activity) was > 100 µM (inactive).

On to `COc1cc(C(=O)NN=Cc2ccccn2)cc(OC)c1OC`, for which the IC50 (inhibition of PLAP activity) is 31.3 µM.

In the case of `CC(C(=O)N(C)C1CCS(=O)(=O)C1)N1C(=O)/C(=C/c2ccco2)SC1=S` (stereo unspecified), the IC50 (inhibition of PLAP activity) is > 100 µM (inactive).

For the compound `CC(C(=O)Nc1ccc(C(=O)O)cc1)N1C(=O)/C(=C\c2ccco2)SC1=S` (stereo unspecified), the IC50 (inhibition of PLAP activity) was 21.9 µM.

For the compound `CC(C(=O)Nc1cccc(C(=O)O)c1)N1C(=O)/C(=C\c2ccco2)SC1=S` (stereo unspecified), the IC50 (inhibition of PLAP activity) is > 100 µM (inactive).

With `CC(C(=O)Nc1ccccc1C(=O)O)N1C(=O)/C(=C\c2ccco2)SC1=S` (stereo unspecified), the IC50 (inhibition of PLAP activity) was > 100 µM (inactive).

In the case of `COc1cc(C(=O)NNc2nc3cc4c(cc3s2)OCO4)cc(OC)c1OC`, the IC50 (inhibition of PLAP activity) is 15.3 µM.

On to `Cc1ccc(/C=N/NC(=O)c2cc(O)c(O)c(O)c2)cc1`, for which the IC50 (inhibition of PLAP activity) is > 100 µM (inactive).

Take `CCOc1ccccc1NC(=O)CCNS(=O)(=O)c1ccc2[nH]c(=O)oc2c1`: the IC50 (inhibition of PLAP activity) was > 100 µM (inactive).

With `COc1ccccc1CNC(=O)CCNS(=O)(=O)c1ccc2[nH]c(=O)oc2c1`, the IC50 (inhibition of PLAP activity) is > 100 µM (inactive).

On to `COC(=O)c1ccc(C)c(NC(=O)CSc2sc3c(O)cc(=O)[nH]c3c2C#N)c1`, for which the IC50 (inhibition of PLAP activity) was > 100 µM (inactive).

Regarding `CCN(C(=O)CN1C(=O)/C(=C\c2ccco2)SC1=S)C1CCS(=O)(=O)C1` (stereo unspecified), the IC50 (inhibition of PLAP activity) is > 100 µM (inactive).

Turning to `Cc1ccc(C)c(NC(=O)CCNS(=O)(=O)c2ccc3[nH]c(=O)oc3c2)c1`, the IC50 (inhibition of PLAP activity) is > 100 µM (inactive).

For the compound `O=C(CN1C(=O)/C(=C/c2ccco2)SC1=S)NC1CCS(=O)(=O)C1` (stereo unspecified), the IC50 (inhibition of PLAP activity) was > 100 µM (inactive).

Turning to `COc1ccc(OC)c(NC(=O)CCNS(=O)(=O)c2ccc3[nH]c(=O)oc3c2)c1`, the IC50 (inhibition of PLAP activity) was > 100 µM (inactive).

Consider `N#Cc1c(SCC(=O)Nc2nc3ccc(Br)cc3s2)sc2c(O)cc(=O)[nH]c12`, for which the IC50 (inhibition of PLAP activity) is > 100 µM (inactive).

For the compound `NS(=O)(=O)c1ccc(-c2ccc(/C=C3\SC(=S)N(C4CCS(=O)(=O)C4)C3=O)o2)cc1` (stereo unspecified), the IC50 (inhibition of PLAP activity) is > 100 µM (inactive).

For the compound `CN(C(=O)CN1C(=O)/C(=C\c2ccco2)SC1=S)C1CCS(=O)(=O)C1` (stereo unspecified), the IC50 (inhibition of PLAP activity) is > 100 µM (inactive).

On to `COc1cccc(NC(=O)CN(C)S(=O)(=O)c2ccc3[nH]c(=O)oc3c2)c1`, for which the IC50 (inhibition of PLAP activity) was > 100 µM (inactive).

With `COc1cc(C(=O)NNC(=S)NC(=O)c2ccc(Cl)cc2)cc(OC)c1OC`, the IC50 (inhibition of PLAP activity) is 22 µM.

In the case of `COc1ccc(OC)c(NC(=O)CSc2sc3c(O)cc(=O)[nH]c3c2C#N)c1`, the IC50 (inhibition of PLAP activity) is > 100 µM (inactive).

With `Cc1ccc(/C=C2\SC(=S)N(C3CCS(=O)(=O)C3)C2=O)o1` (stereo unspecified), the IC50 (inhibition of PLAP activity) is > 100 µM (inactive).

In the case of `COc1ccc(Cl)cc1NC(=O)CSc1sc2c(O)cc(=O)[nH]c2c1C#N`, the IC50 (inhibition of PLAP activity) is > 100 µM (inactive).

On to `CCN(CC)C(=O)CSc1sc2c(O)cc(=O)[nH]c2c1C#N`, for which the IC50 (inhibition of PLAP activity) was > 100 µM (inactive).

Turning to `O=C(CN1C(=O)/C(=C/c2ccco2)SC1=S)NCCc1ccc(O)cc1`, the IC50 (inhibition of PLAP activity) was > 100 µM (inactive).

With `O=C(NNC(=O)c1cc(O)c(O)c(O)c1)NC1CCCCC1`, the IC50 (inhibition of PLAP activity) is 53.5 µM.

`O=S(=O)(Nc1ncccn1)c1ccc(NC(=S)NCCC(c2ccccc2)c2ccccc2)cc1`: the IC50 (inhibition of PLAP activity) is > 100 µM (inactive).

Take `COc1cccc(/C=N/NC(=O)c2cc(O)c(O)c(O)c2)c1`: the IC50 (inhibition of PLAP activity) was > 100 µM (inactive).

For the compound `O=C(CN1C(=O)/C(=C\c2ccco2)SC1=S)Nc1ccc(C(=O)O)cc1`, the IC50 (inhibition of PLAP activity) is > 100 µM (inactive).

As to `CC(C)c1ccc(NC(=O)CCNS(=O)(=O)c2ccc3[nH]c(=O)oc3c2)cc1`, the IC50 (inhibition of PLAP activity) was > 100 µM (inactive).

For the compound `CN1CCC(=NNC(=O)c2cc(O)c(O)c(O)c2)CC1`, the IC50 (inhibition of PLAP activity) was > 100 µM (inactive).

For the compound `CCc1ccc(NC(=O)CN(C)S(=O)(=O)c2ccc3[nH]c(=O)oc3c2)cc1`, the IC50 (inhibition of PLAP activity) is > 100 µM (inactive).

On to `COc1ccc(CNC(=O)CSc2sc3c(O)cc(=O)[nH]c3c2C#N)cc1`, for which the IC50 (inhibition of PLAP activity) was > 100 µM (inactive).

As for `O=C(CCNS(=O)(=O)c1ccc2[nH]c(=O)oc2c1)Nc1ccccc1`, the IC50 (inhibition of PLAP activity) was > 100 µM (inactive).

Take `CCOc1cccc(NC(=O)CSc2sc3c(O)cc(=O)[nH]c3c2C#N)c1`: the IC50 (inhibition of PLAP activity) was > 100 µM (inactive).

The record behind these values is PubChem BioAssay AID493139 (Sanford-Burnham Center for Chemical Genomics, 2011).
